Measurements published in the supplement of paper PMC13386468.

Legend:
Test in all cases: IC50 for competition of protein binding to Kinobeads
Settings in all cases: assay detail: Kinobeads competition in P. falciparum blood-stage lysate
[1] = biological target: A0A146LZZ4
[2] = biological target: UniProt B9ZSI3
[3] = biological target: UniProt C0H5J2
[4] = biological target: UniProt C6KSZ6
[5] = biological target: UniProt C6KT76
[6] = biological target: UniProt O77376
[7] = biological target: UniProt O97250
[8] = biological target: UniProt O97266
[9] = biological target: UniProt P50250
[10] = biological target: UniProt Q6LFH8
[11] = biological target: UniProt Q8I1V0
[12] = biological target: UniProt Q8I202
[13] = biological target: UniProt Q8I259
[14] = biological target: UniProt Q8I2F2
[15] = biological target: UniProt Q8I2P8
[16] = biological target: UniProt Q8I3I5
[17] = biological target: UniProt Q8I3V8
[18] = biological target: UniProt Q8I445
[19] = biological target: UniProt Q8I501
[20] = biological target: UniProt Q8I510
[21] = biological target: UniProt Q8I5A6
[22] = biological target: UniProt Q8I5Y9
[23] = biological target: UniProt Q8IB24
[24] = biological target: UniProt Q8IB44
[25] = biological target: UniProt Q8IBL5
[26] = biological target: UniProt Q8IBT2
[27] = biological target: UniProt Q8IC05
[28] = biological target: UniProt Q8IDF6
[29] = biological target: UniProt Q8IDF9
[30] = biological target: UniProt Q8IDG2
[31] = biological target: UniProt Q8IDG9
[32] = biological target: UniProt Q8IDI5
[33] = biological target: UniProt Q8IE20
[34] = biological target: UniProt Q8IE41
[35] = biological target: UniProt Q8IE76
[36] = biological target: UniProt Q8IFM9
[37] = biological target: UniProt Q8IFP2
[38] = biological target: UniProt Q8II22
[39] = biological target: UniProt Q8IIB6
[40] = biological target: UniProt Q8III6
[41] = biological target: UniProt Q8IK12
[42] = biological target: UniProt Q8IKA6
[43] = biological target: UniProt Q8IKL1
[44] = biological target: UniProt Q8IKS6
[45] = biological target: UniProt Q8IL88
[46] = biological target: UniProt Q8ILB6
[47] = biological target: UniProt Q8ILI2
[48] = biological target: UniProt Q8ILT0
[49] = biological target: UniProt Q8ILW9
[50] = biological target: UniProt Q8ILY8
[51] = biological target: UniProt Q8IM71

Measured: IC50
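Note: native unpurified kinases from lysate captured on beads bearing immobilized kinase inhibitors, with bead-bound kinases quantified by mass spectrometry across compound doses.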

Chain of UniProt P50250 (P50250 whole entry): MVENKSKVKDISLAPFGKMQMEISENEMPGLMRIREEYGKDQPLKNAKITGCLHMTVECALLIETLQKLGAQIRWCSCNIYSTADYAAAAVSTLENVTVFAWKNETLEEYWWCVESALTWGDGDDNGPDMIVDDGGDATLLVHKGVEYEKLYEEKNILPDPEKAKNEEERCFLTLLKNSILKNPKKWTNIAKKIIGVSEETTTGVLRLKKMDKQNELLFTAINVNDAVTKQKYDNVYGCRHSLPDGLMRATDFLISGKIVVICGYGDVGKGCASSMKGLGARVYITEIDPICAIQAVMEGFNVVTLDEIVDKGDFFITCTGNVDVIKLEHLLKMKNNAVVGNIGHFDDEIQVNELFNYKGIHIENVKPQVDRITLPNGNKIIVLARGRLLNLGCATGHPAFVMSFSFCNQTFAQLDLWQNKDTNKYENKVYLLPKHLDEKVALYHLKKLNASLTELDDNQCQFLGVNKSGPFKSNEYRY
Chain of UniProt Q8IDF6 (Q8IDF6 whole entry): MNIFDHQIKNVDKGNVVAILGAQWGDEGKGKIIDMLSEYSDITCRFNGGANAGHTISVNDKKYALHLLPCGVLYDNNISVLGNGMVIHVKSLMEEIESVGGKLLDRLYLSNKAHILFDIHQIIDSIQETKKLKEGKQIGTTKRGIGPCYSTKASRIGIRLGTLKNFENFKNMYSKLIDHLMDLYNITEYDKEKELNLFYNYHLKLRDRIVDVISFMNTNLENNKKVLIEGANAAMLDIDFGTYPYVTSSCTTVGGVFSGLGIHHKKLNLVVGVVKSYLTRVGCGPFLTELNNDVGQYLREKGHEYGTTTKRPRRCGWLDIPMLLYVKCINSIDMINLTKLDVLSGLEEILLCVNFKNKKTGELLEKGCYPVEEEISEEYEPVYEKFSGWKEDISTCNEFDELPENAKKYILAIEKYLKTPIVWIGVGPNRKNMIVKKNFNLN
Chain of UniProt Q8ILW9 (Q8ILW9 whole entry): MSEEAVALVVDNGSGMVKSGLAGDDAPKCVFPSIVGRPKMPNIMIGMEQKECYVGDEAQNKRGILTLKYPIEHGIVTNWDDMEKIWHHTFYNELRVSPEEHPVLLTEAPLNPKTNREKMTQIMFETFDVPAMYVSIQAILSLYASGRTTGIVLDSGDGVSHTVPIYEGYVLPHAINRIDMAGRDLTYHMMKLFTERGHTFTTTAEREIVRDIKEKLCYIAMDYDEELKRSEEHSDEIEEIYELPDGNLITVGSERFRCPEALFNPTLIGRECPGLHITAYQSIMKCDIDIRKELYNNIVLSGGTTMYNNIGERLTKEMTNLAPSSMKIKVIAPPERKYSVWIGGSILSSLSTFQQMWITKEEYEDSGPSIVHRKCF
Chain of UniProt Q6LFH8 (Q6LFH8 whole entry): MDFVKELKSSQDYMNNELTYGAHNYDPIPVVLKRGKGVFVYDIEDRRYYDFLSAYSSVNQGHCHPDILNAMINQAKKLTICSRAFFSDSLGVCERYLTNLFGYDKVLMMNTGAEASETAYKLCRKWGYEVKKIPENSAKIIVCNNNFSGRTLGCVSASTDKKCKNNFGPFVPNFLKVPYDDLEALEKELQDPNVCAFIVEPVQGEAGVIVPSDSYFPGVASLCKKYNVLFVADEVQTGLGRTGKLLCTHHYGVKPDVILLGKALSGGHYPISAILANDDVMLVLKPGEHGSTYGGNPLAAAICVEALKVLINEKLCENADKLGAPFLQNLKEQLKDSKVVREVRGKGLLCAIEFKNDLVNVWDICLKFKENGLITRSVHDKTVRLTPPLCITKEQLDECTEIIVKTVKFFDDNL

O=c1[nH]c2ccc(Cl)cc2c(NC2CN3CCC2CC3)c1-c1nc2ccccc2[nH]1 (stereo unspecified) [CHIR-124]
375 nM: [34]
2220 nM: [4]
> 20 µM: [1] | [2] | [3] | [5] | [6] | [7] | [8] | [9] | [10] | [11] | [12] | [13] | [14] | [15] | [16] | [17] | [18] | [19] | [20] | [21] | [22] | [23] | [24] | [25] | [26] | [27] | [28] | [29] | [30] | [31] | [32] | [33] | [35] | [36] | [37] | [38] | [39] | [40] | [41] | [42] | [43] | [44] | [45] | [46] | [47] | [48] | [49] | [50] | [51]
